In ChEMBL document CHEMBL3853318, “Structure-Based Optimization of Potent, Selective, and Orally Bioavailable CDK8 Inhibitors Discovered by High-Throughput Screening” (J Med Chem, 2016):

How the values were obtained:
[1] = Intrinsic clearance in human liver microsomes at 1 uM preincubated for 5 mins followed by NADPH addition measured after 5 to 30 mins by LC-MS/MS analysis; assay type: ADME; settings: read-out: CLH
7dF3 = experiment: Ratio of IC50 for CDK8 in human 7dF3 cells to IC50 for Alexa647 tracer binding to full length recombinant human His-tagged CDK8/cyclin C; assay type: cell-based
[2] = Intrinsic clearance in rat liver microsomes at 1 uM preincubated for 5 mins followed by NADPH addition measured after 5 to 30 mins by LC-MS/MS analysis; assay type: ADME; settings: read-out: CLH
[3] = Intrinsic clearance in mouse liver microsomes at 1 uM preincubated for 5 mins followed by NADPH addition measured after 5 to 30 mins by LC-MS/MS analysis; assay type: ADME; settings: read-out: CLH
[4] = target: Cyclin-dependent kinase 8 (Homo sapiens, UniProt P49336); experiment: Inhibition of CDK8 in human 7dF3 cells preincubated for 2 hrs followed by beta-oestradiol addition measured after 24 hrs by luciferase reporter gene assay; assay type: cell-based
CDK8/Cyclin C = CDK8/Cyclin C (Homo sapiens, UniProt P49336); experiment: Inhibition of Alexa647 tracer binding to full length recombinant human His-tagged CDK8/cyclin C expressed in Baculovirus expression system preincubated for 20 mins followed by tracer addition and incubated in dark for 60 mins by FRET-based Lanthascreen assay
[5] = target: T1, Tyrosine-protein kinase JAK1 (Homo sapiens, UniProt P23458); experiment: Inhibition of JAK1 (unknown origin) at 1 uM relative to control
T1 sequence (P23458 whole entry): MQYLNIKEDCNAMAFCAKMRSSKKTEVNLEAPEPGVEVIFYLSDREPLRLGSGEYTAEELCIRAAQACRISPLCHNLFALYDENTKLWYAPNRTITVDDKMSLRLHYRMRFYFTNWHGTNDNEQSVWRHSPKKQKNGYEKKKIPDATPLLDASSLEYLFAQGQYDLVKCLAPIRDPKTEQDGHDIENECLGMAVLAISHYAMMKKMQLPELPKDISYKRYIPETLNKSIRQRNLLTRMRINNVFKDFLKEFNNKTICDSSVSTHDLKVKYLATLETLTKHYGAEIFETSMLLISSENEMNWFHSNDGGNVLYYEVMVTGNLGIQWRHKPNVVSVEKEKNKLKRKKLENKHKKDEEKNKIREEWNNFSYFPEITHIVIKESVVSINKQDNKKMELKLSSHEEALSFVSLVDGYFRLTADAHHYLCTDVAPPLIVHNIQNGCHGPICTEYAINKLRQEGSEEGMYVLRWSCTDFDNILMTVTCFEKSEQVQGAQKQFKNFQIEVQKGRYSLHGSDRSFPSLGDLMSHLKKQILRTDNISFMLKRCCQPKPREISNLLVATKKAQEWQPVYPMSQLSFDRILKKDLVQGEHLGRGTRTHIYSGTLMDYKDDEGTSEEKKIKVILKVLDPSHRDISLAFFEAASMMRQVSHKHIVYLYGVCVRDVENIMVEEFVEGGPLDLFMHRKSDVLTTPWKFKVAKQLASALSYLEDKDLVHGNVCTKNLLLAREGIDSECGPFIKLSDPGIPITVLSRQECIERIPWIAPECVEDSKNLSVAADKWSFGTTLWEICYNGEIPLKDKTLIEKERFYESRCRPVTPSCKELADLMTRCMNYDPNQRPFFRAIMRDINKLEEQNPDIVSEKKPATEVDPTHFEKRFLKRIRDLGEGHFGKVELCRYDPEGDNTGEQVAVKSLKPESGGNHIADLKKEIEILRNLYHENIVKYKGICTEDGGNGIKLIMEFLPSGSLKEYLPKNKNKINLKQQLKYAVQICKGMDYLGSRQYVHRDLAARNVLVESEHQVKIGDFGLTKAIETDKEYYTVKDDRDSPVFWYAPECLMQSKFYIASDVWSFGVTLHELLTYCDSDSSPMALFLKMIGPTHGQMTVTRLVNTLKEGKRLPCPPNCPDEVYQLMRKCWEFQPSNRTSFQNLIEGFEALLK

[6] = target: T2, Rho-associated protein kinase 2 (Homo sapiens, UniProt O75116); experiment: Inhibition of ROCK-2 (unknown origin) at 1 uM relative to control
Target sequence in this assay (O75116 whole entry, looked up): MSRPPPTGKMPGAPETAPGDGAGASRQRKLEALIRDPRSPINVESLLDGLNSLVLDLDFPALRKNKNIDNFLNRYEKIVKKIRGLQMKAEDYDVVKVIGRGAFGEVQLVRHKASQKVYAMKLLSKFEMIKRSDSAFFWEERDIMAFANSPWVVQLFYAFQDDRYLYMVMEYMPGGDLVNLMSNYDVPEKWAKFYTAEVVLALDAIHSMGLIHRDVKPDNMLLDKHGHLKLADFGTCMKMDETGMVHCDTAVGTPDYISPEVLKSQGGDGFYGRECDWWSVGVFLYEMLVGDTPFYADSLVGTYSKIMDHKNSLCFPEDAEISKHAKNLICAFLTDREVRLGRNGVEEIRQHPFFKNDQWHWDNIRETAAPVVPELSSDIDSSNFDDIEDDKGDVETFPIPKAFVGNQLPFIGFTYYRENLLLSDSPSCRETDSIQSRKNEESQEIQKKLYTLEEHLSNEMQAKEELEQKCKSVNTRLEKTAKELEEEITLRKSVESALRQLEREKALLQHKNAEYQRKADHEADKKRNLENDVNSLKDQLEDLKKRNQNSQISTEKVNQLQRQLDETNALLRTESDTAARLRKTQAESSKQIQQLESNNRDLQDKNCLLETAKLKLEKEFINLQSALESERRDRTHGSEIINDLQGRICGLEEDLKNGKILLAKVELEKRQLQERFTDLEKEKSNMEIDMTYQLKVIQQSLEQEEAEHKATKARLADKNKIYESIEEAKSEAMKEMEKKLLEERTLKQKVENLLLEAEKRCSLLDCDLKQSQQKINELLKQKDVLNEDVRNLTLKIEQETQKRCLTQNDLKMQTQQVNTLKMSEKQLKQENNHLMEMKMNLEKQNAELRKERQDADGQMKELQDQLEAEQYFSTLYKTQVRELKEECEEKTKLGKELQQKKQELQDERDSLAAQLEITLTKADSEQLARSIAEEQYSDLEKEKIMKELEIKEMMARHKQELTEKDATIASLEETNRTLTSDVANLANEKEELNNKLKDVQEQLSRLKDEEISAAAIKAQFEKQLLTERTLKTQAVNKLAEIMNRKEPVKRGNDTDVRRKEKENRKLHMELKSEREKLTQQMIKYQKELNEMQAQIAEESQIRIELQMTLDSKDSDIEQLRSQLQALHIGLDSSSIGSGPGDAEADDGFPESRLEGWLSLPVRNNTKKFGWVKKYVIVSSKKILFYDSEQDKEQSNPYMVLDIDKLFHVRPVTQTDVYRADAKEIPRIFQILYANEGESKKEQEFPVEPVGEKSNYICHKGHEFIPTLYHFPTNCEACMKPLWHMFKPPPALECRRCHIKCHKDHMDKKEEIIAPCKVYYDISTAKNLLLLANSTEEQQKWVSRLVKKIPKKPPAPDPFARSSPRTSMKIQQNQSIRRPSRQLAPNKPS

[7] = target: T3, Tyrosine-protein kinase JAK2 (Homo sapiens, UniProt O60674); experiment: Inhibition of JAK2 (unknown origin) at 1 uM relative to control
T3 sequence (O60674 whole entry): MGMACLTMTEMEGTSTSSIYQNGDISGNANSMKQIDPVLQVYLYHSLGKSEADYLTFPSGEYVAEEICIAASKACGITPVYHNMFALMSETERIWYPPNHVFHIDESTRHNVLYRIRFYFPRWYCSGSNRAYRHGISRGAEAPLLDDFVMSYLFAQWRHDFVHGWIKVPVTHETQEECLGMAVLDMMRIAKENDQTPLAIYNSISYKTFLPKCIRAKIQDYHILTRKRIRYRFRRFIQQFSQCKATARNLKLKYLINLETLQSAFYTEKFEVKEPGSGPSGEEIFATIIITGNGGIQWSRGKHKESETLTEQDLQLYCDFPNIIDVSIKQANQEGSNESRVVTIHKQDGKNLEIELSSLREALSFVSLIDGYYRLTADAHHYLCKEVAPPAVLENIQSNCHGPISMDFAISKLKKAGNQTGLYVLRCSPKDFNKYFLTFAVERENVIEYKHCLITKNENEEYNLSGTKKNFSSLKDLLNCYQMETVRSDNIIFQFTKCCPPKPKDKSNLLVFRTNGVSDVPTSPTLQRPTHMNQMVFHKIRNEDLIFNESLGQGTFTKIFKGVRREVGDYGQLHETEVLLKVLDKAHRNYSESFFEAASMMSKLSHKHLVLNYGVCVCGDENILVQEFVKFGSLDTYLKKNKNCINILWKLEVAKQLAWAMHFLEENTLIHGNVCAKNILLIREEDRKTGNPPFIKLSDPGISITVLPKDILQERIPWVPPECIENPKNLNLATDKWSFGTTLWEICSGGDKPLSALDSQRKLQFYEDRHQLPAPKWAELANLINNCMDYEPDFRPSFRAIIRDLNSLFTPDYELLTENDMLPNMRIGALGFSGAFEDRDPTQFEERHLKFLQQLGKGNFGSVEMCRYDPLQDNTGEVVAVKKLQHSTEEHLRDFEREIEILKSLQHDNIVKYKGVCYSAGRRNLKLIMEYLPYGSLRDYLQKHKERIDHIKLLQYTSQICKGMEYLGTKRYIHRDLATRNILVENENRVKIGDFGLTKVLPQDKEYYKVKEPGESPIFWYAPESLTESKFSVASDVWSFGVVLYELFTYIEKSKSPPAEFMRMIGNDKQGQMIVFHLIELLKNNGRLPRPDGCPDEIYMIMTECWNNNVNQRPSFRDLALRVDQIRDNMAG

[8] = target: T4, Non-receptor tyrosine-protein kinase TYK2 (Homo sapiens, UniProt P29597); experiment: Inhibition of TYK2 (unknown origin) at 1 uM relative to control
T4 sequence (P29597 whole entry): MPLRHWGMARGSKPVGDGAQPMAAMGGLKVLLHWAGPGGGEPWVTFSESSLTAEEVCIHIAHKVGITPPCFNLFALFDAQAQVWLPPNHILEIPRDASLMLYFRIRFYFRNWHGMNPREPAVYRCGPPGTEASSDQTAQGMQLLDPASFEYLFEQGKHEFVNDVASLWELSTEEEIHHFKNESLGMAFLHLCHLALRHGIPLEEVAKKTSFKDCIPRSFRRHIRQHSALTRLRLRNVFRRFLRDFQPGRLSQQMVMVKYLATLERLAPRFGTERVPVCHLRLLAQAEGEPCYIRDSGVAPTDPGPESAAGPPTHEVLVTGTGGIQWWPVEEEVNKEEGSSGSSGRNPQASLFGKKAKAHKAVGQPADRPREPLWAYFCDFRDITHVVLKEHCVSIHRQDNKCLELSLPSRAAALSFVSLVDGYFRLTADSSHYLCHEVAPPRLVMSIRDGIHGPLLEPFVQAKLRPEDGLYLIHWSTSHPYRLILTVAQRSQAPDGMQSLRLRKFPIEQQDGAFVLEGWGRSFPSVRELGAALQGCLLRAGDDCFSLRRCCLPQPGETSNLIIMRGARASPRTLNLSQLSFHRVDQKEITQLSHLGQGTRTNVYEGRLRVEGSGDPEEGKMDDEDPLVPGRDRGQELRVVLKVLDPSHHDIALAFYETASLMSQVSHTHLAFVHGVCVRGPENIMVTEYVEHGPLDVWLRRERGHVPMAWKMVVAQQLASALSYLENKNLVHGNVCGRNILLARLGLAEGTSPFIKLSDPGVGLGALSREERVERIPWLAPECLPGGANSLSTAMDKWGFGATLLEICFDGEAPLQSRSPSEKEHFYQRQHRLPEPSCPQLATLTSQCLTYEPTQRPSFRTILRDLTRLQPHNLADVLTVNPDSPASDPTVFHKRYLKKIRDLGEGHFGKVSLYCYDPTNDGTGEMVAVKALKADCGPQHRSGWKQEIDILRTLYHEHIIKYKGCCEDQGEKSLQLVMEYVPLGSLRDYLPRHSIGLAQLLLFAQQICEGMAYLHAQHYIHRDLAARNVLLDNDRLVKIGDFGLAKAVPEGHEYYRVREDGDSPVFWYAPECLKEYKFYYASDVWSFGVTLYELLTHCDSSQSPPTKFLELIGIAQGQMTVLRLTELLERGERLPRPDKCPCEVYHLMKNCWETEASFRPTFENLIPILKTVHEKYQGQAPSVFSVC

[9] = target: T5, Tyrosine-protein kinase JAK3 (Homo sapiens) (UniProt P52333); experiment: Inhibition of JAK3 (unknown origin) at 1 uM relative to control
T5 sequence (whole entry): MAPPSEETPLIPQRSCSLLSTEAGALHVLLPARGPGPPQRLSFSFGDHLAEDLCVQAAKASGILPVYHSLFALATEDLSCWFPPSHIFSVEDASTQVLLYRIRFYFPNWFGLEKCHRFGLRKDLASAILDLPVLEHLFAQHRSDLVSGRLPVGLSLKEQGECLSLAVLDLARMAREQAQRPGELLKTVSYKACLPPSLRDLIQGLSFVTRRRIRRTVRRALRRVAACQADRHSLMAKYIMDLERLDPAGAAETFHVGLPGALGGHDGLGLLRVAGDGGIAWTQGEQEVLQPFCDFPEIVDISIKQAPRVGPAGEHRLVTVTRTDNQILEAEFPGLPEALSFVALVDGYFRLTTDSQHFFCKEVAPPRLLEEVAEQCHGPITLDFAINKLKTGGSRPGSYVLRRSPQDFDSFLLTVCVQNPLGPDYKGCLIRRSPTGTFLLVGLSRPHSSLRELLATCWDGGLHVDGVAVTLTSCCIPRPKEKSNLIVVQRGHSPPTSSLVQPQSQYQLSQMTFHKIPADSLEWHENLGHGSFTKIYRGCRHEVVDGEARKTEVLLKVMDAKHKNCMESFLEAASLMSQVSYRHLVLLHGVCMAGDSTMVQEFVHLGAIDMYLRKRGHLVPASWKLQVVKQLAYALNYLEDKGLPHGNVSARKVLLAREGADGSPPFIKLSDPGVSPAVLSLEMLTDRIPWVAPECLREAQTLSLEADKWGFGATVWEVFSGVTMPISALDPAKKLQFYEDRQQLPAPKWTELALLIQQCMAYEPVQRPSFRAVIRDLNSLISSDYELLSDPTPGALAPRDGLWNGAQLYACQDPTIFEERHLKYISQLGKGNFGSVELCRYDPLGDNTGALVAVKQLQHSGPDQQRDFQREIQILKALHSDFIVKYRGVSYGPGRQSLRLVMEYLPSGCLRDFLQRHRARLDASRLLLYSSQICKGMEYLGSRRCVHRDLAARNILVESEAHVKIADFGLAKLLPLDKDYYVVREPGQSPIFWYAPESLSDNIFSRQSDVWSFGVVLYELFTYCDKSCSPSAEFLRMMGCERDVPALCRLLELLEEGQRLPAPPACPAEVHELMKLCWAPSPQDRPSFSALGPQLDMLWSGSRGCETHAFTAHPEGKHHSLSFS

[10] = Apparent permeability from apical to basolateral side in human Caco2 cells at 1 uM after 2 hrs by Transwell assay; assay type: ADME, cell-based; settings: Caco-2
[11] = target: T1, Tyrosine-protein kinase JAK1; experiment: Inhibition of JAK1 (unknown origin)
[12] = Efflux ratio of permeability in human Caco2 cells at 1 uM after 2 hrs by Transwell assay; assay type: ADME, cell-based; settings: Caco-2
[13] = target: T3, Tyrosine-protein kinase JAK2; experiment: Inhibition of JAK2 (unknown origin)
[14] = target: T4, Non-receptor tyrosine-protein kinase TYK2; experiment: Inhibition of TYK2 (unknown origin)
[15] = target: T6, Tyrosine-protein kinase JAK3 (Homo sapiens, UniProt P52333); experiment: Inhibition of JAK3 (unknown origin)
T6 sequence (P52333 whole entry): T5 sequence (whole entry)

[16] = target: T2, Rho-associated protein kinase 2; experiment: Inhibition of ROCK-2 (unknown origin)
Target sequence in this assay (O75116 whole entry): as the sequence (O75116 whole entry, looked up) above

SMILES | microsomal CLint at 1 µM [1] [µL/min/mg] | Ratio IC50 (7dF3) | microsomal CLint at 1 µM [2] [µL/min/mg] | microsomal CLint at 1 µM [3] [µL/min/mg] | IC50 [4] [nM] | IC50 (CDK8/Cyclin C) [nM] | inhibition [5] [%] | inhibition [6] [%] | inhibition [7] [%] | inhibition [8] [%] | inhibition [9] [%] | Papp A→B at 2 h, 1 µM [10] [×10⁻⁶ cm/s] | IC50 [11] [nM] | efflux ratio at 2 h, 1 µM [12] | IC50 [13] [nM] | IC50 [14] [nM] | IC50 [15] [nM] | IC50 [16] [nM]
Cc1ncc2sc(C(=O)N3CCCC3c3ccccc3)nn12 (centres undefined) | 56 | 3 | 446 | 145 | 415 | 77 |  |  |  |  |  |  |  |  |  |  |  | 
Nc1n[nH]c2ccc(C(=O)N3CCCC[C@H]3c3ccc(F)cc3)cc12 | < 10 |  | 15 | 28 | 800 | 45 | 21 | 22 | -2 | 17 |  |  |  |  |  |  |  | 
Cc1ncc2sc(C(=O)N3CCC[C@@H]3c3ccc(Cl)cc3)nn12 | 60 |  | 449 | 514 | 1600 | 110 |  |  |  |  |  |  |  |  |  |  |  | 
Cc1n[nH]c2ccc(C(=O)N3CCN(C)CC3c3ccc(Cl)cc3)cc12 (centres undefined) | 135 |  | 40 | 63 | 230 | 15 |  |  |  |  |  |  |  |  |  |  |  | 
Nc1n[nH]c2ccc(C(=O)N3CC[C@H]3c3ccc(F)cc3)cc12 | 10 |  | < 10 | 10 | 435 | 49 | 63 | 12 | 24 | 45 | 21 |  |  |  |  |  |  | 
O=C(c1ccc2[nH]ncc2c1)N1CCC[C@H]1c1ccc(Cl)cc1 | 354 |  | 94 | 86 | 100 | 32 |  |  |  |  |  |  |  |  |  |  |  | 
Cc1ncc2sc(C(=O)N3CCC[C@H]3c3ccc(Cl)cc3)nn12 | 49 |  | 655 | 447 | 70 | 3.8 |  |  |  |  |  |  |  |  |  |  |  | 
Nc1n[nH]c2ccc(C(=O)N3CC[C@@H](c4ccc(Cl)cc4)C3)cc12 | < 10 |  | 26 | 19 | 150 | 24 | 24 | 20 |  | 23 | 15 |  |  |  |  |  |  | 
Cc1ncc2sc(C(=O)N3CCCC3c3ccc(Cl)cc3)nn12 (centres undefined) | 52 |  | 719 | 388 | 100 | 17 |  |  |  |  |  |  |  |  |  |  |  | 
CNc1n[nH]c2ccc(C(=O)N3CCC[C@H]3c3ccc(Cl)cc3)cc12 | 18 |  | 28 | 31 | 12 | 5.4 | 34 | 17 | 34 | 32 | 37 |  |  |  |  |  |  | 
CCOc1ccccc1CNC(=O)c1nn2c(C)ncc2s1 | > 1000 | 3 | 435 | 119 | 1650 | 129 |  |  |  |  |  |  |  |  |  |  |  | 
Nc1n[nH]c2ccc(C(=O)N3CCC[C@H]3c3ccc(F)cc3)cc12 | < 10 |  | < 10 | < 10 | 120 | 32 | 72 | 27 | 59 | 62 | 58 |  |  |  |  |  |  | 
Cc1nnc2ccc(C(=O)N3CCC[C@H]3c3ccc(Cl)cc3)cn12 | < 10 |  | 19 | 18 | > 10000 | 3990 |  |  |  |  |  |  |  |  |  |  |  | 
CCOc1ccccc1C(C)NC(=O)c1nn2c(C)ncc2s1 (centres undefined) | 61 | 3 | 38 | > 1000 | 2450 | 781 |  |  |  |  |  |  |  |  |  |  |  | 
Cc1n[nH]c2ccc(C(=O)N3CCC[C@H]3c3ccc(Cl)cc3)cc12 | 525 |  | 79 | 244 | 0.6 | 1.4 |  |  |  |  |  |  |  |  |  |  |  | 
Nc1n[nH]c2ccc(C(=O)N3CCC[C@H]3c3ccc(Br)cc3)cc12 | < 10 |  | < 10 | 14 | 19 | 3.1 | 88 | 65 | 88 | 76 | 76 |  |  |  |  |  |  | 
Cc1n[nH]c2ccc(C(=O)N3CCOCC3c3ccc(Cl)cc3)cc12 (centres undefined) | 135 |  | 44 | 29 | 115 | 8.5 |  |  |  |  |  |  |  |  |  |  |  | 
Cc1ncc2ccc(C(=O)N3CCC[C@H]3c3ccc(Cl)cc3)cn12 | 390 |  | 108 | 63 | 90 | 9 |  |  |  |  |  |  |  |  |  |  |  | 
Cc1n[nH]c2cnc(C(=O)N3CCC[C@H]3c3ccc(Cl)cc3)cc12 | 206 |  | 70 | 61 | 125 | 11 |  |  |  |  |  |  |  |  |  |  |  | 
Cc1n[nH]c2ccc(C(=O)N3CCC[C@H]3c3ccc(Cl)cc3)nc12 | 100 |  | 69 | 29 | 2.8 | 1.3 |  |  |  |  |  |  |  |  |  |  |  | 
Cc1n[nH]c2ccc(C(=O)N3CC[C@H]3c3ccc(Cl)cc3)cc12 | 908 |  | 62 | 113 | 2 | 1.7 |  |  |  |  |  |  |  |  |  |  |  | 
Nc1n[nH]c2ccc(C(=O)N3CCC[C@H]3c3ccc(Cl)cc3)cc12 | 23 |  | 10 | 10 | 28 | 4.9 | 86 | 42 | 84 | 70 | 79 | 33.7 | 90 | 2.2 | 286 | 279 | 219 | 1330
Cc1ncc2sc(C(=O)N3CCCC3c3ccc(F)cc3)nn12 (centres undefined) | 38 | 3 | 280 | 129 | 290 | 60 |  |  |  |  |  |  |  |  |  |  |  | 
